Test results reported in patent US11691972B2, “Compounds for targeted degradation of BRD9” (C4 Therapeutics, Inc., priority 2020, dated 2023).

Target: T1, BRD9 (Homo sapiens, UniProt Q9H8M2)
T1 sequence (Q9H8M2 1-597): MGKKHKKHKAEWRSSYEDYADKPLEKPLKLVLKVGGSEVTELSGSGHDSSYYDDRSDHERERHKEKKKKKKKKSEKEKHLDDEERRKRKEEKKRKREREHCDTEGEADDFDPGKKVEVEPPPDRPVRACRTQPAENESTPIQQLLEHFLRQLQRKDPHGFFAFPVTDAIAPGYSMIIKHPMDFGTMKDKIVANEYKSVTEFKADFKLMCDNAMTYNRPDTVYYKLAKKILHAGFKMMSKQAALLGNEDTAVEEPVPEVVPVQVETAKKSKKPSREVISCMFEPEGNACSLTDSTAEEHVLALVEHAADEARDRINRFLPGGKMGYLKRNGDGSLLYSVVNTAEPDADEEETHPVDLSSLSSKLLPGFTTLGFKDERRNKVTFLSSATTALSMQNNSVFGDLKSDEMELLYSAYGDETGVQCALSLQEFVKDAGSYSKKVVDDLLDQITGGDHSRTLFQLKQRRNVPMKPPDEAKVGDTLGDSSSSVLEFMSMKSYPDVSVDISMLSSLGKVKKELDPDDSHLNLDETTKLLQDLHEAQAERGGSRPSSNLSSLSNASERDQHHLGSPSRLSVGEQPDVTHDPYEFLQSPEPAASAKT
Test: HiBiT BRD9 degradation assay in 293T.166 (BRD9-HiBiT) cells
Format: cell-based
Design: endogenously expressing BRD9 with HiBiT fusion tag via CRISPR; host or cells: 293T.166 (BRD9-HiBiT), also expressing LgBiT ectopically
Details: Table 1; 293T.166 cells, 2.0 hours; class symbols; read-out: HiBiT-Degradation 293T.166 BRD9 2.0 hours (DC50)
Experimental: Selected compounds were tested in a BRD9 degradation assay using the HiBit Method.
Dulbecco's modified Eagle medium (DMEM) without phenol red and fetal bovine serum (FBS) were purchased from Gibco (Grand Island, N.Y., USA). Nano-Glo® HiBiT Lytic Assay System was purchased from Promega (Madison, Wis., USA). 293T.166 (BRD9-HiBiT) cell line, endogenously expressing BRD9 with HiBiT fusion tag via CRISPR and ectopically expressing LgBiT tag, was purchased from Promega (Madison, Wis., USA). 293T.167 (BRD7-HiBiT) cell line, endogenously expressing BRD7 with HiBiT fusion tag via CRISPR and ectopically expressing LgBiT tag, was purchased from Promega (Madison, Wis., USA). 293T.92 (BRD4-HiBiT) cell line, endogenously expressing BRD4 with HiBiT fusion tag via CRISPR and ectopically expressing LgBiT tag, was generated in-house. Cell culture flasks and 384-well microplates were acquired from VWR (Radnor, Pa., USA).
BRD9 degradation was determined based on quantification of luminescent signal using Nano-Glo® HiBiT Lytic Assay kit. Test compounds were added to the 384-well plate from a top concentration of 10 μM with 11 points, half log titration in duplicates. 293T.166 cells were added into 384-well plates at a cell density of 10,000 cells per well. The plates were kept at 37° C. with 5% CO2 for 2 hours. BRD7 and BRD4 degradation was similarly determined with 293T.167 cells and 293T.92 cells, respectively. The cells treated in the absence of the test compound were the negative control and the cells without Nano-Glo® HiBiT Lytic reagent were the positive control. After 2-hour incubation, Nano-Glo® HiBiT Lytic Assay reagents were added to the cells. Luminescence was acquired on EnVision™ Multilabel Reader (PerkinElmer, Santa Clara, Calif., USA).

SMILES | DC50 [nM]
COc1cc(-c2cn(C)c(=O)c3[nH]ncc23)cc(OC)c1CN1CC[C@@H](NC(=O)CN2CCC(c3ccc(NC4CCC(=O)NC4=O)cc3)CC2)C1 (stereo in doubt) [Compound 69, N-[1-[[2,6-dimethoxy-4-(6-methyl-7-oxo-1H-pyrazolo[3,4-c]pyridin-4-yl)phenyl]methyl]pyrrolidin-3-yl]-2-[4-[4-[(2,6-dioxo-3-piperidyl)amino]phenyl]-1-piperidyl]acetamide] | 100 to 500
COc1cc(-c2cn(C)c(=O)c3[nH]ncc23)cc(OC)c1CN1CCC2(CC1)CN(C(=O)CN1CCC(c3ccc(NC4CCC(=O)NC4=O)cc3)CC1)C2 (centres unmarked) [Compound 4] | < 100
COc1cc(-c2cn(C)c(=O)c3[nH]ncc23)cc(OC)c1CN1CC(NC(=O)CN2CCC(c3ccc(NC4CCC(=O)NC4=O)cc3)CC2)C1 (centres unmarked) [Compound 5] | < 100
COc1cc(-c2cn(C)c(=O)c3[nH]ncc23)cc(OC)c1CN1CCC(NC(=O)CN2CCC(c3ccc(NC4CCC(=O)NC4=O)cc3)CC2)CC1 (centres unmarked) [Compound 6] | < 100
COc1cc(-c2cn(C)c(=O)c3[nH]ncc23)cc(OC)c1CN1C[C@@H]2C[C@H]1CN2C(=O)CN1CCC(c2ccc(NC3CCC(=O)NC3=O)cc2)CC1 (some centres unmarked) [Compound 13] | < 100
COc1cc(-c2cn(C)c(=O)c3[nH]ncc23)cc(OC)c1CN1C[C@H]2C[C@@H]1CN2C(=O)CN1CCC(c2ccc(NC3CCC(=O)NC3=O)cc2)CC1 (some centres unmarked) [Compound 14] | < 100
COc1cc(-c2cn(C)c(=O)c3cnccc23)cc(OC)c1CN1CCN(C(=O)CN2CCC(c3ccc(NC4CCC(=O)NC4=O)cc3)CC2)CC1 (centres unmarked) [Compound 15] | < 100
COc1cc(-c2cn(C)c(=O)c3[nH]ncc23)c(Cl)cc1CN1CCN(C(=O)CN2CCC(c3ccc(NC4CCC(=O)NC4=O)cc3)CC2)CC1 (centres unmarked) [Compound 19] | < 100
Cn1cc(-c2ccc(CN3CCN(C(=O)CN4CCC(c5ccc(NC6CCC(=O)NC6=O)cc5)CC4)CC3)c(OC(F)(F)F)c2)c2cn[nH]c2c1=O (centres unmarked) [Compound 20] | < 100
COc1cc(-c2cn(C)c(=O)c3[nH]ncc23)cc(OC)c1CN1CCN(C(=O)CN2CCC(c3ccc(OC4CCC(=O)NC4=O)cc3)CC2)CC1 (centres unmarked) [Compound 21] | < 100
CCOc1cc(-c2cn(C)c(=O)c3[nH]ncc23)c(OC)cc1CN1CCN(C(=O)CN2CCC(c3ccc(NC4CCC(=O)NC4=O)cc3)CC2)CC1 (centres unmarked) [Compound 22] | < 100
COc1cc(CN2CCN(C(=O)CN3CCC(c4ccc(NC5CCC(=O)NC5=O)cc4)CC3)CC2)c(OCC(F)F)cc1-c1cn(C)c(=O)c2[nH]ncc12 (centres unmarked) [Compound 25] | < 100
COc1cc(CN2CCN(C(=O)CN3CCC(c4ccc(NC5CCC(=O)NC5=O)cc4)CC3)CC2)c(OC(C)C)cc1-c1cn(C)c(=O)c2[nH]ncc12 (centres unmarked) [Compound 26] | < 100
COc1cc(-c2cn(C)c(=O)c3ccc(F)cc23)cc(OC)c1CN1CCN(C(=O)CN2CCC(c3ccc(NC4CCC(=O)NC4=O)cc3)CC2)CC1 (centres unmarked) [Compound 27] | < 100
COc1cc(-c2cn(C)c(=O)c3ccccc23)cc(OC)c1CN1CCN(C(=O)CN2CCC(c3ccc(NC4CCC(=O)NC4=O)cc3)CC2)CC1 (centres unmarked) [Compound 28] | < 100
COc1cc(-c2cn(C)c(=O)c3cc(Cl)ccc23)cc(OC)c1CN1CCN(C(=O)CN2CCC(c3ccc(NC4CCC(=O)NC4=O)cc3)CC2)CC1 (centres unmarked) [Compound 29] | < 100
COc1cc(-c2cn(C)c(=O)c(C)c2C)cc(OC)c1CN1CCN(C(=O)CN2CCC(c3ccc(NC4CCC(=O)NC4=O)cc3)CC2)CC1 (centres unmarked) [Compound 30] | < 100
COc1cc(-c2cc(C)c(=O)n(C)c2)cc(OC)c1CN1CCN(C(=O)CN2CCC(c3ccc(NC4CCC(=O)NC4=O)cc3)CC2)CC1 (centres unmarked) [Compound 31] | < 100
COc1cc(-c2cn(C)c(=O)c3[nH]ncc23)cc(F)c1CN1CCN(C(=O)CN2CCC(c3ccc(NC4CCC(=O)NC4=O)cc3)C(F)(F)C2)CC1 (centres unmarked) [Compound 33] | < 100
COc1cc(-c2cn(C)c(=O)c3[nH]ncc23)cc(Cl)c1CN1CCN(C(=O)CN2CCC(c3ccc(NC4CCC(=O)NC4=O)cc3)C(F)(F)C2)CC1 (centres unmarked) [Compound 34] | < 100
COc1cc(-c2cn(C)c(=O)c3[nH]ncc23)cc(F)c1CN1CCN(C(=O)CN2CCC(c3ccc(N(C)C4CCC(=O)NC4=O)cc3)CC2)CC1 (centres unmarked) [Compound 35] | < 100
Cn1cc(-c2ccc(CN3CCN(C(=O)CN4CCC(c5ccc(NC6CCC(=O)NC6=O)cc5)CC4)CC3)c(OC(F)(F)F)c2)c2ccc(F)cc2c1=O (centres unmarked) [Compound 36] | < 100
COc1cc(-c2cn(C)c(=O)c3[nH]ncc23)cc(OC)c1CNC1CN(CC(=O)N2CCC(c3ccc(NC4CCC(=O)NC4=O)cc3)CC2)C1 (centres unmarked) [Compound 38] | 100 to 500
COc1cc(-c2cn(C)c(=O)c3[nH]ncc23)cc(OC)c1CNC1CCN(CC(=O)N2CCC(c3ccc(NC4CCC(=O)NC4=O)cc3)CC2)CC1 (centres unmarked) [Compound 39] | < 100

The remaining lines, values ahead:

DC50 [nM] | SMILES
< 100 | COc1cc(-c2cn(C)c(=O)c3[nH]ncc23)cc(OC)c1CN1CCN(C(=O)CN2CCC(c3ccc(NC4CCC(=O)NC4=O)cc3)CC2)CC1 (centres unmarked) [Compound 1, 3-[4-[1-[2-[4-[[2,6-dimethoxy-4-(6-methyl-7-oxo-1H-pyrazolo[3,4-c]pyridin-4-yl)phenyl]methyl]piperazin-1-yl]-2-oxo-ethyl]-4-piperidyl]anilino]piperidine-2,6-dione]
< 100 | COc1cc(-c2cn(C)c(=O)c3[nH]ncc23)cc(OC)c1CN1CCN(C(=O)CN2CCC(c3ccc(NC4CCC(=O)NC4=O)cc3F)CC2)CC1 (centres unmarked) [Compound 7]
< 100 | COc1cc(-c2cn(C)c(=O)c3[nH]ncc23)cc(OC)c1CN1CCN(C(=O)CN2CCC(c3ccc(NC4CCC(=O)NC4=O)cc3)C(F)(F)C2)CC1 (centres unmarked) [Compound 8]
< 100 | COc1cc(-c2cn(C)c(=O)c3[nH]ncc23)cc(F)c1CN1CCN(C(=O)CN2CCC(c3ccc(NC4CCC(=O)NC4=O)cc3)CC2)CC1 (centres unmarked) [Compound 9]
< 100 | COc1cc(-c2cn(C)c(=O)c3[nH]ncc23)cc(OC)c1CN1CCN(C(=O)CN2CCC(c3ccc(NC4CCC(=O)NC4=O)c(Cl)c3)CC2)CC1 (centres unmarked) [Compound 10]
< 100 | COc1cc(-c2cn(C)c(=O)c3[nH]ncc23)cc(OC)c1CN1CCN(C(=O)CN2CCC(c3ccc(NC4CCC(=O)NC4=O)cc3C(F)F)CC2)CC1 (centres unmarked) [Compound 11]
< 100 | COc1cc(-c2cn(C)c(=O)c3[nH]ncc23)cc(Cl)c1CN1CCN(C(=O)CN2CCC(c3ccc(NC4CCC(=O)NC4=O)cc3)CC2)CC1 (centres unmarked) [Compound 12]
< 100 | COc1cc(-c2cn(C)c(=O)c3[nH]ncc23)cc(OC)c1CN1CCN(C(=O)CN2CCC(c3ccc(C4CCC(=O)NC4=O)cc3)CC2)CC1 (centres unmarked) [Compound 16]
< 100 | COc1cc(-c2cn(C)c(=O)c3[nH]ncc23)cc(OC)c1CN1CCN(C(=O)CN2CCC(c3c(F)cc(NC4CCC(=O)NC4=O)cc3F)CC2)CC1 (centres unmarked) [Compound 17]
< 100 | COc1cc(-c2cn(C)c(=O)c3[nH]ncc23)cc(OC)c1CN1CCN(C(=O)CN2CCC(c3ccc(NC4CCC(=O)NC4=O)cc3C(F)(F)F)CC2)CC1 (centres unmarked) [Compound 18]
< 100 | COc1cc(-c2cn(C)c(=O)c3[nH]ncc23)cc(F)c1CN1CCN(C(=O)CN2CCC(c3ccc(NC4CCC(=O)NC4=O)cc3C(F)(F)F)CC2)CC1 (centres unmarked) [Compound 23]
< 100 | COc1cc(-c2cn(C)c(=O)c3[nH]ncc23)cc(F)c1CN1CCN(C(=O)CN2CCC(c3ccc(NC4CCC(=O)NC4=O)cc3Cl)CC2)CC1 (centres unmarked) [Compound 24]
< 100 | COc1cc(-c2cn(C)c(=O)c3[nH]ncc23)cc(OC)c1CN1CCN(C(=O)CN2CC(c3ccc(NC4CCC(=O)NC4=O)cc3)C2)CC1 (centres unmarked) [Compound 32]
< 100 | COc1cc(-c2cn(C)c(=O)c3[nH]ncc23)cc(OC)c1CN1CCN(CC(=O)N2CCC(c3ccc(NC4CCC(=O)NC4=O)cc3)CC2)CC1 (centres unmarked) [Compound 37, 3-[4-[1-[2-[4-[[2,6-dimethoxy-4-(6-methyl-7-oxo-1H-pyrazolo[3,4-c]pyridin-4-yl)phenyl]methyl]piperazin-1-yl]acetyl]-4-piperidyl]anilino]piperidine-2,6-dione]
